Where a name gives a salt, the structure may show the parent alone.
What was measured:
[1] = Example 16: % Add on of diclofenac compositions (10% Diclofenac sodium salt, 10% PEG 400, 10% propylene glycol, 2% Polysorbate 80), 60° C., 1 h, squeezed; type: physicochemical
Method: The samples were then removed from their vessels, squeezed, weighed and left to dry overnight at room temperature before their dry weight and percentage Add on were determined.

[2] = Example 16: diclofenac in the mother liquor by HPLC; type: physicochemical

% Add on ([1]; NaOH 1 drop, pH 13.2): 32.0%
% Add on ([1]; NaOH 1 drop, pH 14.0): 46.0%
% Add on ([1]; ethanol 13.6% (w/w), no NaOH, pH 8.3): 44.1%
% Add on ([1]; no ethanol, no NaOH, pH 8.5): 42.2%
diclofenac concentration in the mother liquor ([2]; ethanol based liquor): 90.76 mg/g
diclofenac concentration in the mother liquor ([2]; water based liquor): 93.68 mg/g
Structure (SMILES): O=C(O)Cc1ccccc1Nc1c(Cl)cccc1Cl [Diclofenac, Diclofenac sodium salt]

From US20230255884A1, “FINISHED FIBROUS SRUCTURES AND METHODS OF THEIR USE AND PREPARATION” (CLEXIO BIOSCIENCES LTD., priority 2019, published 2023)
